In US8822455B2, “Fused aminodihydrothiazine derivatives” (Eisai R&D Management Co., Ltd., priority 2011, dated 2014):

What follows are compounds tested on Aβ42 (assay: In vitro cellular assay (Aβ42): quantification of Aβ peptide in culture of neurons from rat fetus brain (ELISA)). Details: Primary cortical neuron, 72 h, rat primary cortical neurons (embryonic day 18 Wistar), 3 days after addition of compound, read-out: Cell IC50.
Type: cell-based
Procedure: In vitro Cellular Assay (Aβ42):
Quantification of AβPeptide in Culture of Neurons from Rat Fetus Brain
(1) Rat Primary Neuronal Culture
Primary neuronal cultures were prepared from the cerebral cortex of embryonic day 18 Wistar rats (Charles River, UK). Specifically, the embryos were aseptically removed from pregnant rats under ether anesthesia. The brain was isolated from the embryo and immersed in HBSS (Sigma Aldrich #H9269) containing 10 mM HEPES (Gibco #15630-056). The cerebral cortex was collected from the isolated brain under a stereoscopic microscope. The cerebral cortex fragments collected were enzymatically treated in an enzyme solution containing 0.05% trypsin-EDTA solution (GIBCO, #25300) at 37° C. for 20 minutes to disperse the cells. The cells were then washed twice and then gently resuspended in Neurobasal medium (Gibco #21103) supplemented with 2% B27 supplement (GIBCO #17504-044), 0.5 mM L-glutamine (GIBCO #25030), 1×N2 (GIBCO #17502-048), 100 ug/ml Pen/Strep (GIBCO 15140-122) and 5% heat inactivated FCS (PAA #A15-701). The cell dispersion was filtered through a 40-μm nylon mesh (BD Falcon #352340) to remove the remaining cell mass, and thus a neuronal cell suspension was obtained. The neuronal cell suspension was diluted with the medium above and then plated in a volume of 100 μL/well at an initial cell density of 3.25×10^5 cells/ml in poly-D-lysine coated 96-well culture plate (Greiner #655940). The plated cells were cultured in the culture plate at 37° C. in 5% CO2-95% air for 24 hrs. The total amount of the medium was replaced with ‘assay Neurobasal medium’ (as above excluding heat inactivated FCS), and then the cells were cultured for a further five days.
The drug was added to the culture plate on Day 6 of culture as follows. 8 point compound serial dilutions were generated in DMSO at a concentration of ×1000 that of the final assay concentration (FAC). Compound solutions were then prepared by adding 999 ul of ‘Assay Neurobasal media’ (as described in above section) to 1 ul of DMSO compound stock. The total amount of the medium was removed from each of the cell plate wells, and 200 μL/well of compound solution was added. The final DMSO concentration was 0.1%.
The cells were cultured for either 1 or 3 days after addition of the compound for ABx-40 and ABx-42 assays respectively. 150 μl of sample medium was collected and used as the ELISA sample.
Human/Rat β Amyloid (42) ELISA Kit Wako (#290-62601) and Human/Rat β Amyloid (40) ELISA Kit Wako (#294-62501) from Wako Pure Chemical Industries, Ltd. were used for Aβ ELISA Aβ ELISA was carried out according to the protocols recommended by the manufacturers, described in the documents accompanying the kits. The results were shown as percentage of the control groups and IC50 values for each compound were determined using four parameter logistic fit model using the XLFIT5 software package (IDBS).
C[C@H]1OC[C@]2(c3cc(-c4ccn[nH]4)ccc3F)N=C(N)SC[C@H]12 [Example 17, (4aS,5R,7aS)-7a-(2-Fluoro-5-(1H-pyrazol-5-yl)phenyl)-5-methyl-4a,5,7,7a-tetrahydro-4H-furo[3,4-d][1,3]-thiazin-2-amine] showed an IC50 of 0.977 µM. With C[C@H]1OC[C@]2(c3cc(-c4ccnn4C)ccc3F)N=C(N)SC[C@H]12 [Example 20, (4aS,5R,7aS)-7a-(2-fluoro-5-(1-methyl-1H-pyrazol-5-yl)phenyl)-5-methyl-4a,5,7,7a-tetrahydro-4H-furo[3,4-d]thiazin-2-amine] the IC50 was > 1 µM. With C[C@H]1OC[C@]2(c3cc(-c4cncnc4)ccc3F)N=C(N)SC[C@H]12 [Example 1, (4aS,5R,7aS)-7a-(2-Fluoro-5-(pyrimidin-5-yl)phenyl)-5-methyl-4a,5,7,7a-tetrahydro-4H-furo[3,4-d][1,3]thiazin-2-amine] the IC50 was 0.065 µM. C[C@H]1OC[C@]2(c3cc(-c4cnc(-c5cnccn5)[nH]4)ccc3F)N=C(N)SC[C@H]12 [Example 3, (4aS,5R,7aS)-7a-(2-fluoro-5-(2-(pyrazin-2-yl)-1H-imidazol-5-yl)phenyl)-5-methyl-4a,5,7,7a-tetrahydro-4H-furo[3,4-d][1,3]thiazin-2-amine] was tested, and the IC50 was 0.069 µM. NC1=N[C@@]2(c3cc(-c4ccc(F)nc4)c(F)cc3F)CO[C@H](CF)[C@H]2CS1 [Example 30, (4aS,5S,7aS)-7a-(2,4-difluoro-5-(6-fluoropyridin-3-yl)phenyl)-5-(fluoromethyl)-4a,5,7,7a-tetrahydro-4H-furo[3,4-d][1,3]thiazin-2-amine] was tested, and the IC50 was 0.223 µM. In the case of COc1ccc(-c2ccc(F)c([C@]34CO[C@H](C)[C@H]3CSC(N)=N4)c2)cn1 [Example 11, (4aS,5R,7aS)-7a-(2-Fluoro-5-(6-methoxypyridin-3-yl)phenyl)-5-methyl-4a,5,7,7a-tetrahydro-4H-furo[3,4-d][1,3]thiazin-2-amine], the IC50 is reported as 0.839 µM. Work on C[C@H]1OC[C@]2(c3cc(-c4cccc(=O)[nH]4)ccc3F)N=C(N)SC[C@H]12 [Example 25, 6-(3-((4aS,5R,7aS)-2-amino-5-methyl-4a,5,7,7a-tetrahydro-4H-furo[3,4-d][1,3]thiazin-7a-yl)-4-fluorophenyl)pyridin-2(1H)-one] yielded an IC50 of 0.342 µM.
